Nine molecules from patent US7989463B2, “Biccyclic compounds as GATA modulators” (Dr. Reddy's Laboratories Limited, priority 2008, dated 2011) can be followed below.

The subject of series [1] is GATA1. Nature of the series: GATA Assay: GATA Translucent Reporter Vector luciferase assay in transfected HepG2 cells. It is filed as cell-based, Human. Particulars: luciferase normalized to total protein. On the procedure:
Human HepG2 (ATCC) cells were grown in Eagle's Minimum Essential Media (MEM) containing 10% heat inactivated Fetal Bovine Serum (FBS) (Invitrogen) and 5 mL Penicillin-Streptomycin (Invitrogen) in T75 flasks (Corning) in a 37° C./5% CO2 tissue culture incubator (Thermo Electron Corporation) prior to the study. 96-well plates (Corning) were seeded in MEM containing 10% FBS to yield ˜50% confluency. The following day, cells were transfected using FuGENE 6 transfection reagent (Roche) and […] GATA Translucent Reporter Vector (Panomics) according the manufacturer's (Roche) protocol and incubated for about 10-19 h. The next day, the cells were treated with equal volumes of vehicle, dimethyl sulfoxide (DMSO) (Hybri-Max Sterile Filtered Sigma Aldrich) or compounds of formula (I) (in DMSO) diluted in MEM containing 1% FBS. The treated cells were incubated about 8-19 h. The next day the treatment media was removed and the cells were lysed and assayed for luciferase activity using the luciferase assay system (Promega) and using the Envision plate reader (Perkin Elmer). The lysates were also used to measure total protein content with the MicroBCA protein assay kit (Pierce) using the Multiskan Ascent plate reader at 570 nm. Luciferase values were normalized to total protein and fold induction was calculated.
Compounds that show an increase of ≧40% in luciferase levels at ≦20 μm concentration were considered as GATA activators.

Broadly, the melting point is the temperature of the solid-liquid transition.

`O=C(O)C1(c2ccc(Nc3nc(C4CCCC4)nc4c3CCC4)cc2)CCCC1` [Example 1, 1-[4-(2-cyclopentyl-6,7-dihydro-5H-cyclopentapyrimidin-4-ylamino)-phenyl]-cyclopentanecarboxylic acid] came in with a melting point of 321 to 325 °C. As for `O=C(O)C1(c2ccc(Nc3nc(N4CCOCC4)nc4c3CCC4)cc2)CCC1` [Example 4, 1-[4-(2-morpholin-4-yl-6,7-dihydro-5H-cyclopentapyrimidin-4-ylamino)-phenyl]-cyclobutanecarboxylic acid], the melting point was 279 to 281 °C. Moreover, in series [1] (5μ compound), the “GATA1 Activation (Fold Change Vs Control)” value was found to be 2.45 Fold Change Vs Control. For the same molecule, in series [1] (10μ compound), the “GATA1 Activation (Fold Change Vs Control)” value came out at 3.45 Fold Change Vs Control. As for `O=C(O)C1(c2ccc(Nc3nc(N4CCC(O)CC4)nc4c3CCC4)cc2)CCC1` [Example 5, 1-{4-[2-(4-hydroxy-piperidin-1-yl)-6,7-dihydro-5H-cyclopentapyrimidin-4-ylamino]-phenyl}-cyclobutanecarboxylic acid], the melting point is 165 to 167 °C. On the same count and under the same terms, to `O=C(O)C1(c2ccc(Nc3nc(N4CCCC4)nc4c3CCC4)cc2)CCC1` [Example 6, 1-[4-(2-pyrrolidin-1-yl-6,7-dihydro-5H-cyclopentapyrimidin-4-ylamino)-phenyl]-cyclobutanecarboxylic acid] belongs 245 to 247 °C. In the case of `Cn1cc(-c2nc3c(c(Nc4ccc(C5(C(=O)O)CCC5)cc4)n2)CCC3)cn1` [Example 7, 1-{4-[2-(1-methyl-1H-pyrazol-4-yl)-6,7-dihydro-5H-cyclopentapyrimidin-4-ylamino]-phenyl}-cyclobutanecarboxylic acid], the results for the “GATA1 Activation (Fold Change Vs Control)” value in series [1] (5μ compound) and in series [1] (10μ compound) were 1.79 Fold Change Vs Control and 2.09 Fold Change Vs Control, respectively. In the case of `CC(=O)c1ccc(-c2nc3c(c(Nc4ccc(C5(C(=O)O)CCC5)cc4)n2)CCC3)cc1` [Example 9, 1-{4-[2-(4-acetyl-phenyl)-6,7-dihydro-5H-cyclopentapyrimidin-4-ylamino]-phenyl}-cyclobutanecarboxylic acid], the “GATA1 Activation (Fold Change Vs Control)” value came to 2.90 Fold Change Vs Control in series [1] (5μ compound) and 3.50 Fold Change Vs Control in series [1] (10μ compound). For `CC(C)(C)Nc1nc(Nc2ccc(C3(C(=O)O)CCCC3)cc2)nc2c1CCC2` [Example 10, 1-[4-(4-tert-butylamino-6,7-dihydro-5H-cyclopentapyrimidin-2-ylamino)-phenyl]-cyclopentanecarboxylic acid], in that order: 2.07 Fold Change Vs Control and 2.43 Fold Change Vs Control.

In the case of `O=C(O)C1(c2ccc(Nc3nc(Nc4cccc(F)c4)nc4c3CCC4)cc2)CCC1` [Example 12, 1-{4-[2-(3-fluoro-phenylamino)-6,7-dihydro-5H-cyclopentapyrimidin-4-ylamino]-phenyl}-cyclobutanecarboxylic acid], the “GATA1 Activation (Fold Change Vs Control)” value came to 3.22 Fold Change Vs Control in series [1] (5μ compound) and 3.38 Fold Change Vs Control in series [1] (10μ compound). As for `O=C(O)C1(c2ccc(Nc3nc(NC4CCCC4)nc4c3CCC4)cc2)CCC1` [Example 13, 1-[4-(2-cyclopentylamino-6,7-dihydro-5H-cyclopentapyrimidin-4-ylamino)-phenyl]-cyclobutanecarboxylic acid], the “GATA1 Activation (Fold Change Vs Control)” value is on record as 1.94 Fold Change Vs Control in series [1] (5μ compound) and 1.67 Fold Change Vs Control in series [1] (10μ compound).
